Assay results published in patent US7897401B2, “Control of apoptosis by controlling the propensity of ceramide channel formation” (University of Maryland, College Park, priority 2005, dated 2011).

Columns and labels:
Format in all cases: biochemical
[1] = system: C16-ceramide channels in the MOM of yeast mitochondria; test: Complex IV accessibility assay, isolated yeast mitochondria
Experimental: (§1) The ability of the naturally-occurring C16-ceramide to form channels in the mitochondrial outer membranes of isolated yeast mitochondria was assessed via the complex IV accessibility assay. This assay measures the bidirectional flux of cytochrome c across the mitochondrial outer membrane (MOM) by monitoring its oxidation by complex IV of the mitochondrial inner membrane electron transport chain. The initial rate of cytochrome c oxidation when expressed as a percent of the rate measured in mitochondria with damaged outer membranes is a good measure of the permeability of the MOM to proapoptotic proteins. This method has an advantage over simply looking for the release of cytochrome c because both channel prevention and reversal by a potential inhibitor can be evaluated.
Thus, mitochondria are isolated from wild type yeast and yeast strains expressing either human Bcl-2 or Bcl-xL according to previously published methods (Lee, A. et al. (1998) “THE ROLE OF YEAST VDAC GENES ON THE PERMEABILITY OF THE MITOCHONDRIAL OUTER MEMBRANE,” J. Membr. Biol. 161:173-181). Isolated yeast mitochondria are incubated with the naturally occurring C16-ceramide and its ability to form channels is evaluated according to the complex IV accessibility assay (Siskind, L. J. et al. (2002) “CERAMIDE CHANNELS INCREASE THE PERMEABILITY OF THE MITOCHONDRIAL OUTER MEMBRANE To SMALL PROTEINS,” J. Biol. Chem. 277:26796-26803). This assay measures the CN-sensitive oxidation of exogenously-added reduced cytochrome c by cytochrome c oxidase of the inner membrane. It measures the permeability of the mitochondrial outer membrane (MOM) to cytochrome c. […] Mitochondria are incubated with test agents (e.g., C16-ceramide) for a predetermined period of time (e.g., 5-20 minutes), reduced cytochrome c is added and the absorbance is monitored at 550 nm. […]
The complex IV accessibility measures of the permeability of the MOM. The initial rate is expressed as a percentage of the rate of cytochrome c oxidation in mitochondria whose outer membranes are ruptured by hypotonic shock. […]

[2] = system: ceramide channels in the MOM of rat liver mitochondria; test: Complex IV accessibility assay (cytochrome c oxidation), isolated rat liver mitochondria
Description: The amount of ceramide that needs to be added to mitochondria to achieve permeabilization of the MOM to proteins is high compared to physiological levels. However, it is not the absolute ceramide concentration in solution that is important, but rather the concentration of ceramide in the membrane. In addition, only a small percentage of the ceramide added to the solution actually inserts into the membrane. This issue was directly addressed by using radiolabeled ceramide and simultaneously measuring how much ceramide inserts into rat liver mitochondria and how much permeabilization is achieved in the MOM by measuring the accessibility of exogenously added cytochrome c. […] Levels measured in mitochondria in the early stages of apoptosis are 4 pmoles per nmole. Thus, the results are well within the physiological range. Note that after correcting for the membrane partitioning, long and short-chain ceramide have equal potency as expected from the model of the ceramide channel.
as §1
Thus, mitochondria are isolated from wild type yeast and yeast strains expressing either human Bcl-2 or Bcl-xL according to previously published methods (Lee, A. et al. (1998) “THE ROLE OF YEAST VDAC GENES ON THE PERMEABILITY OF THE MITOCHONDRIAL OUTER MEMBRANE,” J. Membr. Biol. 161:173-181). Isolated yeast mitochondria are incubated with the naturally occurring C16-ceramide and its ability to form channels is evaluated according to the complex IV accessibility assay (Siskind, L. J. et al. (2002) “CERAMIDE CHANNELS INCREASE THE PERMEABILITY OF THE MITOCHONDRIAL OUTER MEMBRANE To SMALL PROTEINS,” J. Biol. Chem. 277:26796-26803). This assay measures the CN-sensitive oxidation of exogenously-added reduced cytochrome c by cytochrome c oxidase of the inner membrane. […] Mitochondria are incubated with test agents (e.g., C16-ceramide) for a predetermined period of time (e.g., 5-20 minutes), reduced cytochrome c is added and the absorbance is monitored at 550 nm. […]

[3] = system: ceramide channel in planar phospholipid membrane; test: Electrophysiological recordings on planar phospholipid membranes; details: 0.15 μM protein added while stirring, voltage clamp, FIG. 16
Description: Planar phospholipid membranes were produced by the monolayer method (Montal, M. et al. (1972) “FORMATION OF BIMOLECULAR MEMBRANES FROM LIPID MONOLAYERs AND A STUDY OF THEIR ELECTRICAL PROPERTIES,” Proc. Natl. Acad. Sci. USA 69:3561-3566) as modified by Colombini, M. (1987) (“CHARACTERIZATION OF CHANNELS ISOLATED FROM PLANT MITOCHONDRIA,” Methods Enzymol. 148:465-475), across a 100-μm-diameter hole in a Saran partition. Monolayers were produced using a solution of 0.5% w/v asolectin, 0.5% w/v DiPhyPC, 0.1% w/v cholesterol in hexane. This technique produces solvent-free phospholipid membranes whose lipid composition (focusing on the polar head-groups) is similar to that found in the mitochondrial outer membrane. It differs from the natural membrane in lacking proteins.
The aqueous solutions contained 1 mM MgCl2, and 5 mM Pipes pH 6.8 with KCl varying from 0.10 M to 1.0 M. The KCl concentration on one side of the membrane, referred to as the “trans” side, was always 0.10 M, whereas the other side (the “cis” side) was adjusted as needed. The transmembrane voltage was electronically clamped and the current through the membrane was recorded. The voltage values indicated are the voltage differences across the membrane cis side minus trans side.
C2-ceramide was stirred into the aqueous solution on each side of the membrane from a solution in DMSO, generally 0.5 mg/ml. Single or multiple additions, typically […] each, yielding a final concentration of 2 μg/ml, were made to achieve a desired level of conductance. Sphingosine additions of 5 μl were made from a solution in DMSO (4 mg/mL) yielding a final concentration of 4 μg/mL.
The observation that anti-apoptotic Bcl-2 family proteins inhibit ceramide channel formation in isolated yeast and rat liver mitochondria correlates with previous reports showing inhibition of ceramide-induced apoptosis in whole cells by these proteins. Thus the results directly tie ceramide-induced mitochondrial-mediated apoptosis with the Bcl-2 family of proteins known to regulate these events. To address whether the antiapoptotic proteins act directly on ceramide channels or work by an indirect action, their affects on ceramide channels in solvent-free planar phospholipid membranes was tested. This is a defined system free of other proteins. When C16-ceramide is added to the aqueous solution bathing one side of a planar phospholipid membrane, it results in discontinuous increases in conductance under voltage-clamp conditions, the defining characteristic of channel formation in membranes. These conductance increments are the enlargement of one ceramide channel rather than the formation of multiple ceramide channels in parallel (Siskind, L. J. et al. (2003) “ENLARGEMENT AND CONTRACTURE OF C2-CERAMIDE CHANNELS,” Biophys. J. 85:1560-1575). […]

[4] = system: ceramide channels in mitochondrial outer membranes; test: Dihydroceramide inhibition of ceramide channel formation in mitochondrial outer membranes (rate of oxidation of exogenously-added cytochrome c)
Description: The permeability was monitored by recording the rate of oxidation of exogenously-added cytochrome c. Ceramide (C2) was present at all data points except for the highest amount of dihydroceramide (DHC2) added (29 nmol).

mammalian MOM = test: Ceramide-induced permeabilization of mammalian MOM; details: C16-ceramide; read-out: IC50 for inhibition of C16-ceramide-induced permeabilization of mammalian MOM
yeast mitochondria = test: Ceramide-induced permeabilization in yeast mitochondria
[5] = Ability of sphingolipids to form channels in membranes
Description: The present invention establishes that sphingosine is capable of directly disassembling ceramide channels, thus proving the existence of this novel anti-apoptotic regulatory step. The ability of sphingosine, sphingosine-1-phosphate ([…]) and ceramide-1-phosphate the ability to form channels was investigated.

[6] = system: ceramide channels in the mitochondrial outer membrane (MOM); test: Adenylate kinase release assay in isolated rat liver mitochondria; details: for effect of preincubation on C16-ceramide permeabilization of the MOM and adenylate kinase release: 5 min preincubation, C16-ceramide 40 μg/mL, 10 min, low concentration potentiates, higher inhibits
Experimental: The preparation yielded a mitochondrial suspension containing 10 mg of protein per mL. […] The mitochondria were then pelleted at 14,000 g for 5 min at 4° C. and the supernatant was kept on ice until assayed. […] The enzymes were added to the rest of the reaction mixture 1 min before the addition of the mitochondrial supernatant to allow a trace of ATP to be consumed. The activity of adenylate kinase was detected as an increase in absorbance at 340 nm. Since the activity of the kinase decays with time, even on ice, experiments were performed in sets and the activity of the first supernatant was assayed again at the end of the set. The values were fitted to a first order decay and all values within the set were corrected for the decay of the activity, based on the time delay before assay.
To determine the effect of sphingosine pretreatment on ceramide permeabilization of the mitochondrial outer membrane, mitochondria were incubated at room temperature in the presence of varying concentrations of sphingosine for […] before addition of ceramide and incubation for 10 min. Untreated mitochondria and mitochondria hypotonically lysed (20 μl into 1.2 ml water) served as negative and positive controls, respectively.
Experiments with C16-ceramide were performed in a similar way except as follows. The mitochondria were suspended in the above medium except that the 1 mM Tris buffer was replaced by 5 mM HEPES. To 1.0 mL of this medium at room temperature (RT) was added 17 μL of mitochondrial suspension that had been kept on ice at a concentration of 4 mg/mL. The final mitochondrial protein concentration during the experiment was 80 μg/mL. In the case of shocked mitochondria, the 1.0 mL of medium was replaced by water. Sphingosine was added, where appropriate, from a 0.25 mg/mL solution in DMSO. Typically 4-7 incubations were run in parallel. All samples were incubated for 5 min at RT. Then some samples received 0.4 mL of fatty acid depleted bovine serum albumin (BSA), 25 mg/mL, followed immediately by 20 μL of C16-ceramide dissolved in isopropanol at 2 mg/mL. After a 10-min incubation at RT, 10 μL of 4 mM PMSF was added followed by centrifugation. In these experiments 0.3 mL of mitochondrial supernatant was added to the adenylate kinase reaction mixture.

With “FL Bcl-xL: purified recombinant full-length anti-apoptotic protein Bcl-xL” the “effect on C16-ceramide channels (prevention and reversal) in MOM of isolated yeast mitochondria” value ([1]; 20 μg protein, 20 μM C16-ceramide, 10 min each, FIG. 13D-F) was “prevention and reversal of the C16-ceramide channels was observed”, the “level at which disassembly of preformed C16-ceramide channels was observed” value ([2]; C16-ceramide before protein (reversal), biphasic, FIG. 15A) was no more than 5 µg and the “level giving almost complete prevention of C16-ceramide channel formation” value ([2]; protein 10 min before 20 μM C16-ceramide 10 min, FIG. 15A) was 1.5 µg. For the same compound, the “effect on conductance of a stable C16-ceramide channel” value [3] was “dramatic decrease in the ceramide conductance to baseline”.
With dihydroceramide the “effect on already formed ceramide channels” value [4] was “does not induce channel disassembly”, the “level that inhibits ceramide channel formation, relative to the ceramide level” value ([4]; found in liposomes and isolated mitochondria, FIG. 11 with C2-ceramide) was 10% and the “permeabilization of the MOM to cytochrome c” value ([2]; inserts into mitochondrial membranes to the same degree as ceramide) was “lack of effect”.
In the case of `CCCCCCCCCCCCC/C=C/[C@@H](O)[C@H](CO)NC(=O)CCCCCCCCCCCCCCC` [C16-ceramide], the “channel formation in the MOM of isolated wild-type yeast mitochondria” value ([1]; 10 min incubation, FIG. 13A) is reported as “forms channels”.
For `CC(C)NCC(O)COc1cccc2ccccc12` (centres unmarked) [propranolol], the IC50 (mammalian MOM) was 410 µM, the “effect on ceramide C2-induced permeabilization” value (yeast mitochondria) was “inhibited” and the “effect on ceramide C16-induced permeabilization” value (yeast mitochondria) was “somewhat potentiated”.
In the case of ceramide-1-phosphate [C-1-P], the “ability to form channels” value [5] is reported as “without reproducible effect”.
For `CCCCCCCCCCCCC/C=C/[C@H](O)[C@@H](N)CO` [L-threo sphingosine], the “permeabilization of the MOM to adenylate kinase after removal of excess compound with BSA” value ([6]; 2.4 μg/mL for 5 min, then fatty acid depleted BSA, no ceramide added) was “no penneabilization of the MOM to adenylate kinase was observed”, the “effect of preincubation on C16-ceramide permeabilization of the MOM and adenylate kinase release” value [6] was “same biphasic effect” and the “effect of preincubation on C16-ceramide permeabilization of the MOM and adenylate kinase release” value ([6]; listed as L-sphingosine) was “same results as D-sphingosine”.
With `CCCCCCCCCCCCC/C=C/[C@@H](O)[C@@H](N)COP(=O)(O)O` [S-1-P, sphingosine-1-phosphate] the “ability to form channels” value [5] was “destabilized membranes”.
With “Bcl-2: full-length human Bcl-2 expressed in yeast cells” the “sensitivity to C16-ceramide channel formation of mitochondria from yeast expressing the protein” value ([1]; full-length human Bcl-2 expressed in yeast vs empty vector control) was “resistant to C16-ceramide channel formation”.
For `CCCCOc1cc(C(=O)NCCN(CC)CC)c2ccccc2n1` [dibucaine], the IC50 (mammalian MOM) was 230 µM, the “effect on ceramide C2-induced permeabilization” value (yeast mitochondria) was “inhibited” and the “effect on ceramide C16-induced permeabilization” value (yeast mitochondria) was “somewhat potentiated”.
